Molecular target: T1, A2-S481T/C482T (mutant ASCT2) (Homo sapiens, UniProt Q15758, C467T/S466T)
T1 construct: expressed in transfected cells; host or cells: Xenopus laevis oocytes (cRNA injection)
T1 sequence (Q15758 1-541 S466T/C467T): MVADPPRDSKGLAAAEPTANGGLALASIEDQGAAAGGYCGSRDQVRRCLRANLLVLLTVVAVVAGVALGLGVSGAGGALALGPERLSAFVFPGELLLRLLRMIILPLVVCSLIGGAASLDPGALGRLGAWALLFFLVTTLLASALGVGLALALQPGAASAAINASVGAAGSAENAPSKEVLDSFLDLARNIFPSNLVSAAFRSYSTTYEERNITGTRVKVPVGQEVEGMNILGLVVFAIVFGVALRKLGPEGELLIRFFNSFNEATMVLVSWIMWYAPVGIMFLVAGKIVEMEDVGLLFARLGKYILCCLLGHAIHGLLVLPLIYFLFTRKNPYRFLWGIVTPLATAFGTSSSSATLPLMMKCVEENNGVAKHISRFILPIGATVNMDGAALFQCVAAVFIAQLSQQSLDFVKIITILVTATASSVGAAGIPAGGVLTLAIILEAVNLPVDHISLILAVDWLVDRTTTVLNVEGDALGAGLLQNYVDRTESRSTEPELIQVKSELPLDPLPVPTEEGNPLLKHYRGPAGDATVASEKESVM
Test: Radiolabelled uptake in oocytes expressing A2-S481T/C482T
Format: cell-based
Details: 10 µM L-[3H]substrate, 10 min, room temperature

Compound: N[C@@H](CO)C(=O)O [L-serine]
- Radiolabelled substrate uptake into oocytes (in words): displays uptake
